A short description of the data set: DSC determination of the crystallization peak of coenzyme Q10 (effect of preventing crystallization). The format is physicochemical. To be noted: held at 80° C. 10 minutes, cooled to −50° C. at −5° C./min. As for the experimental part:
The component materials shown in Table 1 were warmed and dissolved at 60° C., and weighed out the appropriate amount on a measuring aluminum pan to make samples for DSC determination.
Using the samples obtained in Reference Examples 1 to 10, the effect of preventing coenzyme Q10 crystallization derived from a lipophilic sucrose fatty acid ester was determined by DSC (differential scanning calorimetry).
Detector: DSC6220 (manufactured by SII Nano Technology Inc.)
Determination condition: the crystallization peak (exothermic peak) of coenzyme Q10 was determined after retaining the samples at 80° C. for 10 minutes and then cooling them to −50° C. at a cooling rate of −5° C./rain.

Take `COC1=C(OC)C(=O)C(C/C=C(\C)CC/C=C(\C)CC/C=C(\C)CC/C=C(\C)CC/C=C(\C)CC/C=C(\C)CC/C=C(\C)CC/C=C(\C)CC/C=C(\C)CCC=C(C)C)=C(C)C1=O` [compound 4, Coenzyme Q10]: the DSC exothermic peak is −11.4 °C.
